Source: publication PMC4856416, “ATP half‐sites in RadA and RAD51 recombinases bind nucleotides” (FEBS Open Bio, 2016)

How the values were obtained:
RAD51–BRC4 = target: T1, RAD51–BRC4 (Homo sapiens, UniProt Q06609); assay: ITC; assay type: binding; settings: read-out: RAD51-BRC4 / K D/μM
T1 construct: monomerised fusion: BRC repeat 4 of BRCA2 covalently linked to the N terminus of the human RAD51 ATPase domain; with Breast cancer type 2 susceptibility protein (BRC repeat 4)

HumRadA2 = target: T2, HumRadA2 (Pyrococcus furiosus, UniProt O74036, I169M/Y201A/V202Y/E219S/D220A/K221M/DEL288-301); assay: ITC; assay type: binding; settings: 25 °C, 50 mM Tris pH 7.5, 100 mM NaCl, 5 mM MgCl2; read-out: HumRadA2 / K D/μM
T2 construct: gene radA; humanised monomeric C-terminal ATPase domain of RadA; six FxxA-site mutations; E. coli BL21(DE3)

ITC = assay type: binding, Pyrococcus furiosus; settings: 25 °C, 50 mM Tris pH 7.5, 100 mM NaCl, 5 mM MgCl2; read-out: RAD51-BRC4 / K D/μM

T1 sequence (Q06609 97-339 limits assumed): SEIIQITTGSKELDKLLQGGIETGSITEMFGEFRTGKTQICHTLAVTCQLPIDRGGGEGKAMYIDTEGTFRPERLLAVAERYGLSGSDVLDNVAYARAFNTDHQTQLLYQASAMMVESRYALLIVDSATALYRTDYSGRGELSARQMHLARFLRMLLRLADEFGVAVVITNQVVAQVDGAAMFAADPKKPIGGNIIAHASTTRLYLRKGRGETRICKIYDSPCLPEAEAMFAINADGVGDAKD
T1 sequence (P51587 1517-1551 partner limits assumed): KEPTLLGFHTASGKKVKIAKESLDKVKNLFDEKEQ

SMILES | Kd (RAD51–BRC4) [µM] | Kd (HumRadA2) [µM] | Kd (ITC) [µM]
Nc1nc2c(ncn2[C@@H]2O[C@H](COP(=O)(O)OP(=O)(O)O)[C@@H](O)[C@H]2O)c(=O)[nH]1 [GDP] | 2.5 | 0.21 | –
Nc1ncnc2c1ncn2[C@@H]1O[C@H](COP(=O)(O)OP(=O)(O)OP(=O)(O)O)[C@@H](O)[C@H]1O [ATP] | 1 | – | 1
Nc1nc2c(ncn2[C@@H]2O[C@H](COP(=O)(O)OP(=O)(O)OP(=O)(O)O)[C@@H](O)[C@H]2O)c(=O)[nH]1 [GTP] | 5 | 0.64 | –
Nc1ncnc2c1ncn2[C@@H]1O[C@H](COP(=O)(O)OP(=O)(O)O)[C@@H](O)[C@H]1O [ADP] | 1 | 0.54 | –
Nc1ncnc2c1ncn2[C@@H]1O[C@H](COP(=O)(O)OP(=O)(O)NP(=O)(O)O)[C@@H](O)[C@H]1O [AMPPNP] | 12 | 20 | –
